Experimental data: the Deep4Chem optical property database

Assay: solvent given as SMILES

SMILES | emission maximum (in C1CCOC1) | emission maximum (in ClCCl) | emission maximum (in CC#N) | other results
CC1=[N+]2C(=C(c3ccccc3)c3ccc(/C=C/c4ccc(C(=C(c5ccccc5)c5ccccc5)c5ccccc5)cc4)n3[B-]2(F)F)C=C1 | 610 nm |  |  | 
CCC1(CC)c2cc(-c3cccs3)ccc2-c2c1c1c(c3c2C(CC)(CC)c2cc(-c4cccs4)ccc2-3)C(CC)(CC)c2cc(-c3cccs3)ccc2-1 | 385 nm |  |  | 
c1ccc(-n2c(-c3ccc(N(c4ccc(-c5ccc(N(c6ccc(-c7nc8c9ccccc9c9ccccc9c8n7-c7ccccc7)cc6)c6ccc(-c7nc8c9ccccc9c9ccccc9c8n7-c7ccccc7)cc6)cc5)cc4)c4ccc(-c5nc6c7ccccc7c7ccccc7c6n5-c5ccccc5)cc4)cc3)nc3c4ccccc4c4ccccc4c32)cc1 |  | 432 nm |  | 
CC(C)(C)c1ccc2c3c(c4ccc(C(C)(C)C)cc4c2c1)=[N+]1C(=C(c2ccccc2)c2cc4c5ccc(C(C)(C)C)cc5c5cc(C(C)(C)C)ccc5c4n2[B-]1(F)F)C=3 | 713 nm | 716 nm | 712 nm | emission maximum (in C1CCCCC1): 709 nm; emission maximum (in Cc1ccccc1): 713 nm
Cc1nc2cccc(-c3nc4ccc([N+](=O)[O-])cc4[nH]3)c2c(=O)[nH]1 |  |  |  | emission maximum (in CN(C)C=O): 450 nm
CCOC(=O)CC[N+]1=c2cc3c(cc2CCC1)=Cc1c(c2ccc(N(C)C)cc2oc1=O)O3 |  | 637 nm | 643 nm | emission maximum (in CO): 641 nm; emission maximum (in O): 644 nm
CCCCC(CC)Cn1c2cc(C#N)ccc2c2ccc(C#Cc3ccc4ccc5ccc(C#Cc6ccc7c8ccc(C#N)cc8n(CC(CC)CCCC)c7c6)c6ccc3c4c56)cc21 (stereo unspecified) |  | 458 nm |  | 
COc1cc2c(c(OC)c1OC)c1ccc3cccc4c5cccc6oc(=O)c2c(c65)c1c34 | 492 nm |  |  | 
COc1ccc2c(c1)[n+]([O-])nc(N)[n+]2[O-] |  |  | 510 nm | emission maximum (in O): 542 nm
COc1cc2oc(=O)c3c4ccc(C=O)cc4c4ccc5cccc6c(c1)c2c3c4c56 | 442 nm |  |  | 
F[B-]1(F)N(c2ccccc2)C=Cc2cccc[n+]21 | 541 nm |  | 555 nm | emission maximum (in C1CCCCC1): 543 nm; emission maximum (in CCO): 553 nm; emission maximum (in O): 539 nm
CCc1c(C)c2n(c1C)[B-](F)(F)[N+]1=C(NCc3ccc(OC)cc3)C(SC#N)=CC1=C2C |  | 586 nm | 582 nm | emission maximum (in CCCCCC): 589 nm; emission maximum (in CCOC(C)=O): 586 nm; emission maximum (in CO): 583 nm
COC(=O)c1cc(=O)n(Cc2ccccc2)c2cc(-c3ccc(OC)cc3)sc12 |  | 474 nm | 477 nm | 
Cn1c(=O)c(/N=N/c2cc(S(=O)(=O)O)ccc2C(=O)O)c(O)c2ccccc21 | 523 nm | 516 nm |  | emission maximum (in CC(C)=O): 538 nm; emission maximum (in CCOC(C)=O): 528 nm; emission maximum (in CO): 532 nm; emission maximum (in CS(C)=O): 486 nm; emission maximum (in Cc1ccccc1): 509 nm; emission maximum (in O): 553 nm
CN1/C(=C\C=C\C2=C3C=CC(c4ccccc4)=[N+]3[B-](F)(F)n3c2ccc3-c2ccccc2)Sc2ccccc21 |  |  | 727 nm | 
CCCCn1c2ccc(-c3cccc(F)c3)cc2c2ccc3c4cc(-c5cccc(F)c5)ccc4n(CCCC)c3c21 |  |  |  | emission maximum (in ClC(Cl)Cl): 411 nm
Cc1nc2ccc(/C=C/c3ccc(N(C)C)cc3)cc2nc1-c1ccccc1 |  | 590 nm | 641 nm | emission maximum (in C1COCCO1): 526 nm
Cc1cc(C)n2c1C=C1C(=O)N(C)C(c3ccc([N+](=O)[O-])cc3)=[N+]1[B-]2(F)F |  |  |  | emission maximum (in CCCCCC): 587 nm
Cc1cc(C)c(B(c2c(C)cc(C)cc2C)c2cc3cc(N(C)C)c4ccccc4c3c3c2ccc2ccccc23)c(C)c1 | 553 nm |  | 565 nm | emission maximum (in C1CCCCC1): 509 nm; emission maximum (in ClC(Cl)Cl): 536 nm; emission maximum (in c1ccccc1): 539 nm
O=C(O)C1=C(C(=O)O)C2=C[C@H]3c4ccccc4[C@]2(S1)c1ccccc13 |  | 503 nm |  | 
N#C/C(=C\c1ccc([N+](=O)[O-])cc1)c1nc(-c2ccccc2)cs1 |  |  | 552 nm | 
